Measurements published in ChEMBL document CHEMBL4118116, “Benzoxazine derivatives of phytophenols show anti-plasmodial activity via sodium homeostasis disruption” (Bioorg Med Chem Lett, 2018).
The source made the active and inactive calls. No cut-off for these calls is given here.

Columns and labels:
Plasmodium falciparum [1] = test: Induction of mitochondrial membrane potential loss in trophozoite stage of Plasmodium falciparum 3D7 infected in human erythrocytes assessed as decrease in JC1 red to JC1 green ratio at 50 uM by JC1 staining based microscopic analysis; assay type: functional, organism-based
HepG2 = test: Cytotoxicity against human HepG2 cells assessed as reduction in cell viability at 50 uM after 24 hrs by MTT assay; assay type: cell-based; settings: hepg2, 24 h
Plasmodium falciparum [2] = test: Growth inhibition of schizont stage Plasmodium falciparum 3D7 infected in human erythrocytes at 10 uM after 46 hrs by ethidium bromide staining based flow cytometric analysis relative to control; assay type: functional; settings: 3D7, 46 h, read-out: GI
Plasmodium falciparum [3] = test: Antiplasmodial activity against late trophozoite stage of Plasmodium falciparum 3D7 infected in human erythrocytes measured after 46 hrs by ethidium bromide staining based flow cytometric analysis; assay type: functional, organism-based; settings: for EC50: 3D7, 46 h
[4] = tested on: Plasmodium falciparum 3D7; test: Inhibition of P-type cation ATPase ATP4 in trophozoite stage of Plasmodium falciparum 3D7 infected in human erythrocytes assessed as increase in Na+/- levels at 50 uM by sodium green dye based microscopic analysis; assay type: cell-based
Plasmodium falciparum [5] = test: Growth inhibition of schizont stage Plasmodium falciparum 3D7 infected in human erythrocytes at 50 uM after 46 hrs by ethidium bromide staining based flow cytometric analysis relative to control; assay type: functional; settings: 3D7, 46 h, read-out: GI
Plasmodium falciparum [6] = test: Ratio of EC50 for antiplasmodial activity against late trophozoite stage of Plasmodium falciparum 3D7 infected in human erythrocytes to EC50 for antiplasmodial activity against late trophozoite stage of Plasmodium falciparum 3D7 infected in human erythrocytes in presence of graphene oxide 2; assay type: functional
Plasmodium falciparum [7] = test: Antiplasmodial activity against late trophozoite stage of Plasmodium falciparum 3D7 infected in human erythrocytes measured after 46 hrs in presence of graphene oxide 2 by ethidium bromide staining based flow cytometric analysis; assay type: functional, organism-based; settings: 3D7, 46 h
[8] = tested on: Plasmodium falciparum 3D7; test: (§1) Inhibition of P-type cation ATPase ATP4 in trophozoite stage of Plasmodium falciparum 3D7 infected in human erythrocytes assessed as swelling of intraerythrocytic parasites by measuring diameter of parasite at 50 uM after 4 hrs by sodium green dye based microscopic analysis (reference value: 3.5 micrometer); assay type: cell-based
Plasmodium falciparum [9] = test: Antiplasmodial activity against late trophozoite stage of Plasmodium falciparum 3D7 infected in human erythrocytes measured after 46 hrs in presence of graphene oxide 1 by ethidium bromide staining based flow cytometric analysis; assay type: functional, organism-based; settings: 3D7, 46 h
[10] = tested on: Plasmodium falciparum 3D7; test: as §1, with “of parasitized RBC” for “of parasite”, “value: 5.03” for “value: 3.5”; assay type: cell-based

Q: What does the source list for `C=CCc1cc2c(c(OC)c1)OCN(Cc1ccco1)C2`?
A: Activity (Plasmodium falciparum [1]): Active; Activity (HepG2): Non-Toxic; inhibition of growth at 10 µM (Plasmodium falciparum [2]): 4.7%; Activity (Plasmodium falciparum [3]): Dose-dependent effect; EC50 (Plasmodium falciparum [3]): 22 µM; inhibition [4]: Active; inhibition of growth at 50 µM (Plasmodium falciparum [5]): 58.5%

Q: Which results are given for `C/C=C/c1cc2c(c(OC)c1)OCN(Cc1ccco1)C2`?
A: Activity (Plasmodium falciparum [1]): Active; Ratio EC50 (Plasmodium falciparum [6]): 36; Activity (HepG2): Non-Toxic; EC50 (Plasmodium falciparum [7]): 490 nM; inhibition of growth at 10 µM (Plasmodium falciparum [2]): 14.9%; Activity [8]: 4.4 µm; Activity (Plasmodium falciparum [3]): Dose-dependent effect; EC50 (Plasmodium falciparum [3]): 17.5 µM; EC50 (Plasmodium falciparum [9]): 7.19 µM; inhibition [4]: Active; inhibition of growth at 50 µM (Plasmodium falciparum [5]): 73%; Activity [10]: 6.3 µm

Q: `C/C=C/c1ccc(O)c(OC)c1` was tested. Which Activity (HepG2) did it give?
A: Non-Toxic

Q: With `C=CCc1ccc(O)c(OC)c1` [EUGENOL] as the compound, how does the Activity (HepG2) read?
A: Non-Toxic
